Results on 2 compounds are retold here after patent publication US10251892B2, “Bicyclic heterocycles as FGFR4 inhibitors” (Incyte Corporation, priority 2015, dated 2019).

One assay addresses FGFR3 enzyme (Homo sapiens (Human), UniProt P22607). Description: FGFR Enzymatic Assay (peptide phosphorylation, FRET), FGFR3. In kind it is biochemical. The following applies: IC50 ratio showing FGFR3 selectivity; pre-incubated for 4 hours. On the procedure:
(§1) The inhibitor potency of the exemplified compounds was measured in an enzyme assay that measures peptide phosphorylation using FRET measurements to detect product formation. Inhibitors were serially diluted in DMSO and a volume of 0.5 μL was transferred to the wells of a 384-well plate.
(§2) GraphPad prism3 was used to analyze the data.

Another assay deals with FGFR4 (Homo sapiens (Human), UniProt P22455). Description: FGFR Enzymatic Assay (peptide phosphorylation, FRET), FGFR4. It counts as biochemical. On the procedure: as §1
The enzymes were purchased from Millipore or Invitrogen.
as §2

Setting [1] is: IC50 ratio showing FGFR4 selectivity, pre-incubated for 4 hours.
[2] abbreviates: ratio of IC50 data showing FGFR4 selectivity, pre-incubated for 5 to 10 minutes.

A value given as a limit tells only on which side of the number the result lay.

Sequence of FGFR4 (P22455 22-802): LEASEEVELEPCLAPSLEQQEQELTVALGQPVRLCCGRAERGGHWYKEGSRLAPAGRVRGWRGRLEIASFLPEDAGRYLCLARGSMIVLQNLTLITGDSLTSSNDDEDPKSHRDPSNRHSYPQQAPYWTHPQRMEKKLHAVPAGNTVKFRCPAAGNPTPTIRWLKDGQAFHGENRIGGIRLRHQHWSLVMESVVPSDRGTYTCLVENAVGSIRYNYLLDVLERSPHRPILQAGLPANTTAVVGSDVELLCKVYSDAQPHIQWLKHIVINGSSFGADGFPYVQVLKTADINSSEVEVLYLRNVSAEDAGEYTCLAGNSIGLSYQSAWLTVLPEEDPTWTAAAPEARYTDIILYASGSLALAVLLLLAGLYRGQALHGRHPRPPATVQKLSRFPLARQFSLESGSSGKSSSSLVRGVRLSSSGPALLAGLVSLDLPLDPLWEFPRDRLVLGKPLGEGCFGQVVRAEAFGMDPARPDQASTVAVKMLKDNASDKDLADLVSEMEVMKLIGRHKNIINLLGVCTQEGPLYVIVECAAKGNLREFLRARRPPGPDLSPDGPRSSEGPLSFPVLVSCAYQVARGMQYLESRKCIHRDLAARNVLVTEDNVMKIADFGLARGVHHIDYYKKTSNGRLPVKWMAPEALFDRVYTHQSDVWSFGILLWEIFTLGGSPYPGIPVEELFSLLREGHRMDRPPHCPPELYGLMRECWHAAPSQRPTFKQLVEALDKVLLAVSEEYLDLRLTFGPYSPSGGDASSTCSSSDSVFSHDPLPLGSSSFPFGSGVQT
Sequence of FGFR3 enzyme (P22607 23-806): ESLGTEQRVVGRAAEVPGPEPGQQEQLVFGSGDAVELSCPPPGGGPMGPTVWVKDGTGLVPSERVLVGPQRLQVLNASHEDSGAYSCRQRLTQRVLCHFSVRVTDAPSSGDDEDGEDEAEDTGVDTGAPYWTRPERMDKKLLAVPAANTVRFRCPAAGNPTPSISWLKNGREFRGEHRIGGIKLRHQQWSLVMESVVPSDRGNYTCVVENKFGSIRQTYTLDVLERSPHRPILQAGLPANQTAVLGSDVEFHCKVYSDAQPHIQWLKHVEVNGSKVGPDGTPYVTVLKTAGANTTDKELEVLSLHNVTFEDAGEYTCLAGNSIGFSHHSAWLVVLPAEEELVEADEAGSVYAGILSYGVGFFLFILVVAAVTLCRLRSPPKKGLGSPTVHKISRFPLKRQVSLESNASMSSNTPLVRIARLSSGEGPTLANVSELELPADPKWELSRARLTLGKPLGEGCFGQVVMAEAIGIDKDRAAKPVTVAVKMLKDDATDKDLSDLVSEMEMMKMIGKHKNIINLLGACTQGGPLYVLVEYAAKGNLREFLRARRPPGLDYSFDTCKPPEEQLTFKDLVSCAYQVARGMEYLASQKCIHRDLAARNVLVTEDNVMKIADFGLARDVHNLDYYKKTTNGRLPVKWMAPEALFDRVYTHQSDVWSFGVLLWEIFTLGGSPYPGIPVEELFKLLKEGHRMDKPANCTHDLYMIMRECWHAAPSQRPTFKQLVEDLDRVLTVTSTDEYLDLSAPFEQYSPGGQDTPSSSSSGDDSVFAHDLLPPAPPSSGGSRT

With `COc1cc(OC)c(F)c(N2Cc3cnc(-c4cncc(NS(C)(=O)=O)c4)cc3C3(CC3)C2=O)c1F` [Example 15, N-(5-(2′-(2,6-difluoro-3,5-dimethoxyphenyl)-3′-oxo-2′,3′-dihydro-1′H-spiro[cyclopropane-1,4′-[2,7]naphthyridine]-6′-yl)pyridin-3-yl)methanesulfonamide], the FGFR1/FGFR3 on FGFR3 enzyme is listed as above 3. Further, at FGFR4 (setting [1]), the FGFR1/FGFR4 is given as above 50, the FGFR2/FGFR4 is above 25 and the FGFR3/FGFR4 is above 10. At FGFR4 (setting [2]), the FGFR1/FGFR4 is on record as above 50, the FGFR2/FGFR4 is reported as above 25 and the FGFR3/FGFR4 is given as above 10.

Consider `COc1cc(OC)c(F)c(N2Cc3cnc(-c4cncc(CN5CCOCC5)c4)cc3C3(CC3)C2=O)c1F` [Example 16, 2′-(2,6-difluoro-3,5-dimethoxyphenyl)-6′-(5-(morpholinomethyl)pyridin-3-yl)-1′H-spiro[cyclopropane-1,4′-[2,7]naphthyridin]-3′(2′H)-one], for which the FGFR1/FGFR3 at FGFR3 enzyme is on record as above 1. Moreover, at FGFR4 (setting [1]), the FGFR1/FGFR4 is given as above 50, the FGFR2/FGFR4 is above 25 and the FGFR3/FGFR4 was above 10. In addition, at FGFR4 (setting [2]), the FGFR1/FGFR4 is above 25, the FGFR2/FGFR4 is above 10 and the FGFR3/FGFR4 is above 10.
